The text below walks through data of patent publication US8961930B2, “Isatin derivatives for use as in vivo imaging agents” (Imperial Innovations Limited, priority 2008, dated 2015).

For data set [1], the system named is caspase-3 cognate target poly(ADP-ribose) polymerase (PARP). The data set can be described thus: Cellular activity: PARP cleavage immunoblot in cisplatin-treated RIF-1 cells. In kind it is cell-based, murine. As to conditions: 15 min pre-incubation, cisplatin 100 μM 48 h. From the text: The Δ-PARP immunoblot band corresponds to the endogenous 89 kDa large fragment of PARP resulting from caspase 3 cleavage. α-tubulin was used as a loading control.
(In general: A western blot detects proteins with antibodies after separation by electrophoresis.)

A further data set concerns LNM35 cells. The data set can be described thus: In vitro [^18F]11 uptake in LNM35 cells. In kind it is cell-based, human. Conditions: 100 μM CDDP or VP-16, 60 min uptake. The source says:
The human ovarian carcinoma cell lines PEO1/4 were established and characterised as described in Wolf C. R. et al.^22 and Langdon S. P. et al^23. Briefly, PEO1/4 cells were derived from the malignant ascites of a patient with a recurrent mucinous ovarian adenocarcinoma, before (PEO1) and after (PEO4) the onset of a clinical resistance to cisplatin chemotherapy in this patient. The radiation-induced murine fibrosarcoma (RIF-1) tumour cell line was originally characterised by Twentyman P. R. et al.^20. The LNM35 tumour cells are a highly lymphogenous metastatic subline of the human large pulmonary carcinoma NCI-H460 cell line, as described in Kozaki K. et al.^24. […]
Cells were plated in triplicate in 12-well plates 2 or 3 days prior to the experiments and treated with the antineoplastic platinum-derived drug Cisplatin, 5-FU, the protein synthesis inhibitor cycloheximide (CHX) or the topoisomerase inhibitor etoposide (VP-16) (Sigma, UK) or corresponding vehicle at the indicated concentration and time. […] 260 μL of each sample were transferred in counting tubes and Fluorine-18 radioactivity was immediately determined using a Packard Cobra II gamma counter (Perkin Elmer, UK). […] BCA Protein assay (Pierce, UK) was performed for all samples and datas are normalized and expressed as CCPMA or RLU (Relative Light Unit)/mg of protein.

The next data set deals with PEO1 xenograft. The data set can be described thus: In vivo [^18F]11 biodistribution and PET imaging, PEO1 xenograft. Details: species or system mice. Conditions: for 60 min biodistribution, Bone / 60 min biodistribution, Kidney / 60 min biodistribution, L. Intestine / 60 min biodistribution, Liver / 60 min biodistribution, Lung / 60 min biodistribution, Muscle / 60 min biodistribution, S. Intestine / 60 min biodistribution, Spleen / 60 min biodistribution, Tumour: PEO1. The source says: (§1) In vivo tumour models were established by subcutaneous injection of PEO1/4 (10×10^6 cells, with v/v matrigel, BD Biosciences, Oxford, UK), RIF-1 (5×10^5 cells) and LNM35 (1×10^6 cells) on the back of 6-8 weeks old female nu/nu-BALB/c or male C3H/hej mice (Harlan, Bicester, Oxfordshire, UK). Tumour growth was monitored every two days using electronic callipers, and tumour volume estimated using (π/6)×L×W×D (L=length, W=width and D=depth). All animal work was done by licensed investigators in accordance with the United Kingdom's “Guidance on the Operation of Animals (Scientific Procedures) Act 1986” (HMSO, London, United Kingdom, 1990) and in full compliance with government regulations and guidelines on the welfare of animals in experimental neoplasia.
(§2) For biodistribution studies, tumour-bearing mice were treated with 10 mg/kg cisplatin or vehicle for 24 h, anesthetized with isofluorane/O2/N2O and injected i.v. in the lateral tail vein with ˜100 μCi [^18F]11 for the indicated time. The different tissues were removed, weighted and placed in counting tubes for immediate Fluorine-18 radioactivity counting.
(§3) Tumour-bearing mice treated with Cisplatin (10 mg/kg for 24 h) or vehicle were scanned on a dedicated small animal PET scanner (quad-HIDAC; Oxford Positron Systems, Weston-on-the-Green, United Kingdom). Anesthetized animals were placed within a thermostatically controlled bed and positioned prone within the scanner. The bed was calibrated to provide a mouse rectal temperature of ˜37° C. A bolus injection of [^18F]11 (˜100 μCi) was given intravenously (i.v.) via the tail vein cannula and scanning commenced. Dynamic emission scans were acquired in list-mode format over 60 minutes. The acquired data were then sorted into 0.5-mm sinogram bins and 19 time frames (0.5×0.5×0.5 mm voxels; 4×15, 4×60, and 11×300 seconds) for image reconstruction, which was done by filtered back projection using a two-dimensional Hamming filter (cutoff 0.6). The image data-sets obtained were transferred to a SUN workstation (Ultra 10; SUN Microsystems, Santa Clara, Calif.) and visualized using the Analyze software (version 6.0; Biomedical Imaging Resource, Mayo Clinic, Rochester, Minn.). Cumulative images of the dynamic data composed of 0 to 1 minute after injection and 30 to 60 minutes after injection were used for visualization of radiotracer uptake and to define the regions of interest (ROI). The count densities were averaged for each ROI at each of the 19 time points to obtain a time versus radioactivity curve (TAC) for the ROIs. Tumour TAC was normalized to that of heart at each of the time points to obtain the normalized uptake value (NUV). The [^18F]9 data from […] were used as internal input function for normalizing tumour data. […] FRT is a useful variable in that it indicates the proportion of radiotracer delivered to the tumour that is retained. It therefore normalizes tumor [^18F]9 uptake to delivery.

Another data set relates to PEO4 xenograft. The data set can be described thus: In vivo [^18F]11 biodistribution and PET imaging, PEO4 xenograft. Details: species or system mice. Conditions: for 60 min biodistribution, Bone / 60 min biodistribution, Kidney / 60 min biodistribution, L. Intestine / 60 min biodistribution, Liver / 60 min biodistribution, Lung / 60 min biodistribution, Muscle / 60 min biodistribution, S. Intestine / 60 min biodistribution, Spleen / 60 min biodistribution, Tumour: PEO4.
Text: as §1, §2, §3

For the molecule `O=C1C(=O)N(Cc2cn(CCF)nn2)c2ccc(S(=O)(=O)N3CCC[C@H]3COc3ccc(F)cc3F)cc21` [Compound 11, (S)-1-((1-(2-Fluoroethyl)-1H-[1,2,3]-triazol-4-yl)methyl)-5-(2(2,4-difluorophenoxymethyl)-pyrrolidine-1-sulfonyl)isatin], the “effect on induction of cleaved PARP by cisplatin induced apoptosis” value in data set [1] is on record as “disrupted the induction of caspase-3 cognate target PARP by cisplatin induced apoptosis”.
Consider `O=C1C(=O)N(Cc2cn(CC[18F])nn2)c2ccc(S(=O)(=O)N3CCC[C@H]3COc3ccc(F)cc3F)cc21` [[^18F]11, (S)-1-((1-(2-Fluoroethyl)-1H-[1,2,3]-triazol-4-yl)methyl)-5-(2(2,4-difluorophenoxymethyl)-pyrrolidine-1-sulfonyl)isatin], for which the “[^18F]11 uptake in drug-treated cells compared to control” value in the data set with LNM35 cells is given as “significantly increased”. In the data set with PEO1 xenograft (CDDP treated), the “60 min biodistribution, Bone” value turned out to be 1.51 ± 1.02; the “60 min biodistribution, Kidney” value is 8.53 ± 3.64; the “60 min biodistribution, L. Intestine” value came out at 3.24 ± 1.81; the “60 min biodistribution, Liver” value worked out at 8.20 ± 2.09. In addition, in the data set with PEO1 xenograft (CDDP treated), the “60 min biodistribution, Lung” value is recorded as 4.90 ± 1.05; the “60 min biodistribution, Muscle” value is given as 1.34 ± 0.28; the “60 min biodistribution, S. Intestine” value is 9.09 ± 5.82; the “60 min biodistribution, Spleen” value turned out to be 1.65 ± 0.22. The “60 min biodistribution, Tumour” value with PEO1 xenograft (CDDP treated) was found to be 2.96 ± 1.25. In the data set on PEO1 xenograft (Control), the “60 min biodistribution, Bone” value came out at 0.64 ± 0.09; the “60 min biodistribution, Kidney” value is listed as 6.59 ± 1.94; the “60 min biodistribution, L. Intestine” value was 1.81 ± 0.37; the “60 min biodistribution, Liver” value is reported as 9.98 ± 2.51. Besides, in the data set on PEO1 xenograft (Control), the “60 min biodistribution, Lung” value was 4.25 ± 0.57; the “60 min biodistribution, Muscle” value turned out to be 0.98 ± 0.14; the “60 min biodistribution, S. Intestine” value came out at 4.27 ± 0.78; the “60 min biodistribution, Spleen” value worked out at 1.19 ± 0.26. The “60 min biodistribution, Tumour” value in the data set with PEO1 xenograft (Control) is on record as 1.37 ± 0.25. Moreover, in the data set with PEO1 xenograft (CDDP-treated mouse, PEO1 xenograft, 30-60 min), the “PET image: uptake in the tumour” value was “significant uptake”. Moreover, the “uptake in the tumour of CDDP treated vs control mice” value in the data set with PEO1 xenograft (PEO1 xenografts, 60 min) is “significant increased uptake”. In addition, in the data set with PEO4 xenograft (CDDP treated), the “60 min biodistribution, Bone” value worked out at 1.44 ± 0.66; the “60 min biodistribution, Kidney” value was found to be 7.96 ± 3.34; the “60 min biodistribution, L. Intestine” value worked out at 2.89 ± 0.93; the “60 min biodistribution, Liver” value is 8.22 ± 2.89. In addition, in the data set with PEO4 xenograft (CDDP treated), the “60 min biodistribution, Lung” value was 4.73 ± 1.78; the “60 min biodistribution, Muscle” value was determined as 1.13 ± 0.22; the “60 min biodistribution, S. Intestine” value was found to be 10.43 ± 14.36; the “60 min biodistribution, Spleen” value is reported as 1.81 ± 0.80. Also, in the data set with PEO4 xenograft (CDDP treated), the “60 min biodistribution, Tumour” value is reported as 2.15 ± 0.79. Besides, in the data set on PEO4 xenograft (Control), the “60 min biodistribution, Bone” value was determined as 1.12 ± 0.47; the “60 min biodistribution, Kidney” value is 8.04 ± 4.24; the “60 min biodistribution, L. Intestine” value turned out to be 2.40 ± 1.88; the “60 min biodistribution, Liver” value amounted to 6.71 ± 1.56. In the data set on PEO4 xenograft (Control), the “60 min biodistribution, Lung” value is reported as 3.31 ± 0.83; the “60 min biodistribution, Muscle” value amounted to 0.88 ± 0.36; the “60 min biodistribution, S. Intestine” value is listed as 10.37 ± 10.58; the “60 min biodistribution, Spleen” value came to 1.26 ± 0.45. In addition, the “60 min biodistribution, Tumour” value with PEO4 xenograft (Control) is given as 1.66 ± 0.41. For the same molecule, the “uptake in the tumour of CDDP treated vs control mice” value in the data set with PEO4 xenograft (CDDP-resistant PEO4 tumours, 60 min) was “not showing differences in uptake between control and treated”. In addition, the “PET image: uptake in the tumour” value in the data set on PEO4 xenograft (CDDP-treated mouse, PEO4 xenograft, 30-60 min) is on record as “significant uptake”.
